How the values were obtained:
[1] = tested on: anesthetized dog (myocardial contractile force, heart rate, arterial pressure, aortic flow); assay: Ganglionic-beta blocked anesthetized dog procedure; type: in vivo; details: for ED50: Canis lupus familiaris, iv, read-out: inotropic ED50
Procedure: Adult mongrel dogs of either sex weighing 10 to 16 kg are fasted overnight, anesthetized with pentobarbital sodium 35 mg/kg, i.v. intubated, respired with room air using a Harvard respirator, and instrumented surgically to monitor myocardial contractile force, heart rate, arterial pressure, aortic flow and EKG limb lead II. The aforesaid measurements are recorded continously on a strip chart recorder.
Myocardial contractile force is monitored by a a Walton-Brodie strain gauge sutured to the left ventricular myocardium parallel to the left anterior descending coronary artery. Arterial pressure is measured using a fluid-filled catheter attached to a pressure transducer introduced via the right femoral artery and positioned in the thoracic aorta. Mean arterial pressure is determined by electronically clamping the pulsatile pressure signal. Aortic flow is monitored using a precalibrated, noncannulating electromagnetic flow probe positioned around the thoracic aorta. Heart rate is monitored using a cardiotachometer triggered by the QRS complex of the limb lead II EKG. The right femoral vein is cannulated for intravenous infusion of drugs. Body temperature is maintained at 37±1° C.
Following a 30 min postsurgical stabilization period, control values are recorded. Myocardial depression is induced by ganglionic and beta receptor blockade. Initially, the responsiveness of the autonomic nervous system is assessed by performing a 30 sec bilateral carotid occlusion (BCO). Ten minutes later, a saline solution of isoproterenol 0.3 mcg/kg i.v. is administered to assess beta receptor integrity. Ten minutes after that, a saline solution of mecamylamine 2 mg/kg i.v. is infused, followed by a saline solution of propranolol 1 mg/kg i.v. plus 0.3 mg/kg/hr. […] Ten minutes later, the test compound or vehicle is administered intravenously in ascending doses at 30 min intervals at […] in a total volume of 3.5 ml. On completion of the experiment, both BCO and isoproterenol challenges are repeated to verify ganglionic and beta blockade.
Solutions of the most preferred compound of the present invention, 6-[3'-cyano-6'-methyl-2'-oxo(1H)pyridin-5'-yl]-3,4-dihydrocarbostyril, and milrinone, 3-cyano-6-methyl-5-(4-pyridyl)-pyridin-2-one, were administered intravenously in accordance with the procedure described above. The solutions were prepared by dissolution in PEG 200 followed by serial saline dilution to yield test doses. Test solutions of 6-[3'-cyano-6'-methyl-2'-oxo(1H)pyridin-5'-yl]-3,4-dihydrocarbostyril were prepared at doses of 3, 10 and 30 mcg (expressed as base) per kg, and solutions of milrinone were prepared at test doses of 30, 100 and 300 mcg/kg.

[2] = tested on: Peak III cAMP phosphodiesterase; assay: Inhibition of Peak III cAMP phosphodiesterase activity; type: biochemical, dog; details: fold more potent than milrinone
Description: The following in vitro method is another means for measuring the inotropic potency of the present compounds. This method is a modification of the enzyme inhibition method reported by Thompson, W. J. and Appleman, M. M., "Characterization of Cyclic Nucleotide Phosphodiesterase of Rat Tissue," J. Biological Chemistry, Vol. 246, pp. 3145-3150 (1971); and Thompson, W. J., Brooker, G. and Appleman, M. M., "Assay of Cyclic Nucleotide Phosphodiesterase with Radioactive Substrates," Methods in Enzymology, Vol. 38, pp. 205-212 (1974); and is believed to correlate to in vivo intropic activity in humans.
The test compounds are included in media comprising a radioactively labeled substrate (^3 H-cyclic nucleotide) such as adenosine 3':5'-monophosphate (cyclic AMP) and guanosine-3':5'-monophosphate(cyclic GMP), and a non-rate-limiting amount of 5'-nucleotidease isolated from a dog heart. The inhibition of the enzyme hydrolysis of the 5'-nucleotide product of the cNUC-PDEase to the corresponding nucleoside is measured by separating the charged, unhydrolyzed substrate from the uncharged hydrolysis product. Separation may be acheived either chromatographically from the uncharged nucleoside product of the assay with ion-exchange resin or preferentially quenched with the ion-exchange resin so that it is not quantitated with the liquid scintillation counter.

[3] = 30 mcg/kg i.v., ganglionic-beta blocked anesthetized dog
[4] = ganglionic-beta blocked anesthetized dog
[5] = 100 mcg/kg i.v., ganglionic-beta blocked anesthetized dog

potency in Peak III phosphodiesterase inhibition relative to milrinone [2] | Compound | increase in contractile force (maximum) [1, 3] | increase in heart rate [1, 3] | ED50 [1, 4] | arterial blood pressure ([1]; i.v., at the doses tested (3, 10 and 30 mcg/kg)) | increase in aortic blood flow (maximum) ([1]; i.v., doses of 3, 10 and 30 mcg/kg tested) | increase in contractile force [1, 5] | increase in heart rate [1, 5] | maximum decrease of mean arterial pressure ([1]; i.v., dose-related, sustained, doses of 30, 100 and 300 mcg/kg tested) | increase in aortic blood flow (in words) ([1]; i.v., doses of 30, 100 and 300 mcg/kg tested)
about twelve | Cc1[nH]c(=O)c(C#N)cc1-c1ccc2c(c1)CCC(=O)N2 [6-[3'-Cyano-6'-methyl-2'-oxo(1H)pyridin-5'-yl]-3,4-dihydrocarbostyril] | 97% | 17% | 0.016 mg/kg | not altered | 51% | – | – | – | –
– | Cc1[nH]c(=O)c(C#N)cc1-c1ccncc1 [milrinone, 3-cyano-6-methyl-5-(4-pyridyl)-pyridin-2-one, reference compound] | – | – | 0.05 mg/kg | – | – | 111% | 19% | 32% | only transiently at low dose

From US4785005A, “6-(6-alkylpyridone)-carbostyril compounds and their cardiotonic uses” (Rorer Pharmaceutical Corporation, priority 1986, dated 1988)
